Measurements published in the CheMixHub viscosity set.

Experiment: xn = mol fraction of the nth substance listed

CCCC[N+]1=C2CCCCCN2CCC1.c1c[n-]cn1 + O
viscosity [mPa·s], 100 kPa
Conditions | x1 = 0.0298 | x1 = 0.0697 | x1 = 0.0991 | x1 = 0.2001 | x1 = 0.3002 | x1 = 0.439 | x1 = 0.5972 | x1 = 0.7501 | x1 = 0.89
293.15 K | 4.316 | 12.27 | 19.53 | 55.65 | 97.57 | 133.7 | 136.6 | 127.6 | 117.4
298.15 K | 3.347 | 9.898 | 15.3 | 39.88 | 66.69 | 88.91 | 91.45 | 86.9 | 80.42
303.15 K | 2.838 | 8.133 | 12.48 | 29.5 | 47.22 | 61.57 | 63.37 | 60.13 | 57.19
308.15 K | 2.449 | 6.778 | 9.929 | 22.51 | 34.56 | 44.11 | 45.74 | 43.8 | 41.93
313.15 K | 2.138 | 5.738 | 8.244 | 17.58 | 26.15 | 32.54 | 33.55 | 32.34 | 31.79

CCCOCCO + OCCOCCOCCO
101 kPa
Conditions | viscosity [mPa·s]
293.15 K, x1 = 0.0477 | 37.18
293.15 K, x1 = 0.1028 | 32.98
293.15 K, x1 = 0.2026 | 26.12
293.15 K, x1 = 0.3116 | 19.86
293.15 K, x1 = 0.397 | 15.84
293.15 K, x1 = 0.4561 | 13.47
293.15 K, x1 = 0.4963 | 12.06
293.15 K, x1 = 0.549 | 10.39
293.15 K, x1 = 0.5885 | 9.266
293.15 K, x1 = 0.6941 | 6.794
293.15 K, x1 = 0.8011 | 4.892
293.15 K, x1 = 0.9015 | 3.544
293.15 K, x1 = 0.9316 | 3.208
298.15 K, x1 = 0.0552 | 30.77
298.15 K, x1 = 0.1173 | 26.96
298.15 K, x1 = 0.2033 | 22.23
298.15 K, x1 = 0.3039 | 17.54
298.15 K, x1 = 0.4049 | 13.68
298.15 K, x1 = 0.4555 | 12.02
298.15 K, x1 = 0.5186 | 10.2
298.15 K, x1 = 0.5413 | 9.595
298.15 K, x1 = 0.591 | 8.373
298.15 K, x1 = 0.6905 | 6.309
298.15 K, x1 = 0.7968 | 4.592
298.15 K, x1 = 0.8962 | 3.38
298.15 K, x1 = 0.9323 | 3.003
303.15 K, x1 = 0.0529 | 26.52
303.15 K, x1 = 0.1142 | 23.47
303.15 K, x1 = 0.2041 | 19.36
303.15 K, x1 = 0.2979 | 15.66
303.15 K, x1 = 0.4027 | 12.28
303.15 K, x1 = 0.4522 | 10.91
303.15 K, x1 = 0.4952 | 9.838
303.15 K, x1 = 0.5507 | 8.582
303.15 K, x1 = 0.5939 | 7.697
303.15 K, x1 = 0.6941 | 5.899
303.15 K, x1 = 0.7987 | 4.346
303.15 K, x1 = 0.9027 | 3.083
303.15 K, x1 = 0.9431 | 2.664

N#Cc1ccccc1 + CCCO
viscosity [mPa·s], 101.33 kPa
Conditions | x1 = 0.1072 | x1 = 0.2174 | x1 = 0.2995 | x1 = 0.4082 | x1 = 0.5248 | x1 = 0.5951 | x1 = 0.6992 | x1 = 0.7547 | x1 = 0.9108
303.15 K | 1.447 | 1.31 | 1.222 | 1.138 | 1.096 | 1.079 | 1.066 | 1.071 | 1.094
308.15 K | 1.308 | 1.19 | 1.113 | 1.037 | 1.006 | 0.994 | 0.986 | 0.991 | 1.018
313.15 K | 1.187 | 1.082 | 1.017 | 0.955 | 0.93 | 0.918 | 0.913 | 0.919 | 0.951

C=CCNCC=C.CC(=O)O + O
101 kPa, x2 = 0.284
Conditions | viscosity [mPa·s]
298.15 K | 80
308.15 K | 45.7
318.15 K | 27.6

CC[N+](CC)(CC)CC.[I-] + O
viscosity [mPa·s], 101 kPa
Conditions | x1 = 0.0005 | x1 = 0.0009 | x1 = 0.0018 | x1 = 0.0027 | x1 = 0.0036
293.15 K | 1.004 | 1.018 | 1.037 | 1.051 | 1.074
298.15 K | 0.893 | 0.902 | 0.916 | 0.931 | 0.943
303.15 K | 0.826 | 0.835 | 0.846 | 0.859 | 0.872
308.15 K | 0.697 | 0.703 | 0.713 | 0.723 | 0.733

CC(C)C(C)C + CCCCCCCCCCCC
298 K, 101.33 kPa
Conditions | viscosity [mPa·s]
x1 = 0.101 | 1.237
x1 = 0.2039 | 1.127
x1 = 0.297 | 1.018
x1 = 0.4013 | 0.898
x1 = 0.4985 | 0.7936
x1 = 0.6035 | 0.6871
x1 = 0.7426 | 0.5433
x1 = 0.8116 | 0.4795
x1 = 0.9014 | 0.4023

N#Cc1ccccc1 + COc1ccccc1
viscosity [mPa·s], 101.33 kPa
Conditions | x2 = 0.0923 | x2 = 0.1792 | x2 = 0.2764 | x2 = 0.3719 | x2 = 0.4735 | x2 = 0.6068 | x2 = 0.7036 | x2 = 0.808 | x2 = 0.8989
293.15 K | 1.315 | 1.3 | 1.27 | 1.235 | 1.191 | 1.164 | 1.149 | 1.134 | 1.119
298.15 K | 1.226 | 1.201 | 1.181 | 1.142 | 1.122 | 1.088 | 1.079 | 1.056 | 1.036

O=S(=O)(O)CCN1CCOCC1 + O
viscosity [mPa·s], 101.3 kPa
Conditions | x1 = 0.003662 | x1 = 0.0073 | x1 = 0.00959 | x1 = 0.01075 | x1 = 0.01417 | x1 = 0.01767
298.15 K | 0.918 | 0.98 | 1.006 | 1.035 | 1.101 | 1.153
308.15 K | 0.743 | 0.792 | 0.814 | 0.836 | 0.893 | 0.932
318.15 K | 0.616 | 0.657 | 0.676 | 0.693 | 0.737 | 0.772

N#Cc1ccccc1 + Cc1ccccc1
viscosity [mPa·s], 100 kPa
Conditions | x1 = 0.1034 | x1 = 0.2113 | x1 = 0.3332 | x1 = 0.409 | x1 = 0.5093 | x1 = 0.6337 | x1 = 0.7569 | x1 = 0.879
303 K | 0.5391 | 0.5612 | 0.6226 | 0.6592 | 0.7016 | 0.7812 | 0.8795 | 0.9682
308 K | 0.5099 | 0.5348 | 0.6121 | 0.6589 | 0.7285 | 0.7989 | 0.8621 | 0.9325
313 K | 0.5068 | 0.5399 | 0.5908 | 0.6325 | 0.6985 | 0.7545 | 0.8319 | 0.8819

C1CC[C@H]2CCCC[C@@H]2C1 + O=C1CCCCC1
viscosity [mPa·s], 101.3 kPa
Conditions | 293.15 K | 303.15 K
x2 = 0.05 | 2.114 | 1.758
x2 = 0.15 | 2.103 | 1.744
x2 = 0.2415 | 2.105 | 1.737
x2 = 0.3447 | 2.119 | 1.737
x2 = 0.4511 | 2.147 | 1.744
x2 = 0.5088 | 2.168 | 1.75
x2 = 0.6731 | 2.253 | 1.784
x2 = 0.6779 | 2.256 | 1.785
x2 = 0.7761 | 2.326 | 1.815
x2 = 0.8609 | 2.397 | 1.848
x2 = 0.9315 | 2.466 | 1.88
